Source: US20070099853A1, “Agent for improving physiological motor functions” (SUNTORY LIMITED, priority 2003, published 2007)

Experiment: FRAP activity test and antioxidant evaluation test using rats
Assay type: in vivo, rats of Wistar strain
Details: male Wistar rats, oral, 100 mg/kg
Description: Male rats of Wistar strain (9 weeks age) were fasted for one night, a pine bark extract mentioned in Example 1 or vitamin C was compulsorily administered via oral route, and blood was collected from tail vein from time to time to prepare plasma samples. FRAP value of the plasma sample was measured by a method of Benzie (Benzie, I. F. F. and Strain, J. J., Anal. Biochem., 1996, Volume 239, pages 70 to 76) and its changes with a lapse of time were traced as an index for antioxidant activity in blood. The plasma sample (10 μL) was added to 990 μL of FRAP reagent containing 20 mM of FeCl3 followed by being allowed to stand at 37° C. for 4 minutes, and changes in absorbance at 593 nm were measured. The same operation was conducted using a solution containing a predetermined concentration of […] sample and, from the changes in absorbance, a calibration curve for FRAP values was prepared.

O=C1O[C@H]([C@@H](O)CO)C(O)=C1O [vitamin C]
FRAP value in blood: an increase in the FRAP value was also observed
